US4182878A, “1-Phenyl-1H-pyrazolo[3,4-d]pyrimidine-4-carbonitrile and a method for its preparation” (The Lion Dentrifice Co., Ltd., priority 1977, dated 1980)

Tests used:
[1] = tested on: Ehrlich's tumor cells; experiment: Carcinostatic activity in ddY mice subcutaneously inoculated with Ehrlich's tumor cells; assay type: in vivo; details: for Weight of tumor tissues in the sample group (S) / Ratio of S/C: 14 days after inoculation; for Weight of tumor tissues in the sample group (S) / Toxicity, ratio of died mice / Ratio of S/C: 1 mg daily intraabdominal injection; for Weight of tumor tissues in the sample group (S) / Toxicity, ratio of died mice: dosage period 10 days (I, IV) or 7 days (XI, VI, X); for Evaluation: based on the ratios of S/C in percentages; for effectiveness in preventing the multiplication of cancer cells: conclusion in words from the table; for Toxicity, ratio of died mice: number of mice died in the group during 14 days after transplantation; for Ratio of S/C: tumor weight sample/control, control 4.44 ± 1.02 g (I, IV), 1.36 ± 0.15 g (XI, VI), 1.52 ± 0.27 g (X)
Procedure: In addition to the foregoing examples of preparation processes, Compounds I, IV, VI, X and XI were evaluated with respect to their carcinostatic activities and acute toxicities by animal tests as follows.
Each of mice (ddY) having a body weight of about 25 g was subcutaneously innoculated with 3×10^6 of Ehrlich's tumor cells, and the thus inoculated mice were divided into 5 "sample" groups and 3 "control" groups, each group consisting of five or four mice. The thus treated mice belonging to the control groups were observed over a period of 14 days. On the other hand, each mouse belonging to the sample groups was given a 1 mg dose of Compounds I, IV, VI, XI or X by injection into the abdominal coelom every day during the period beginning after 24 hours from the innoculation of the tumor cells, and as indicated in the table below.
At the end of the 14-day period following the above-mentioned innoculation of the tumor cells, the tumor tissues of each mouse were taken out and weighed, so that comparison could be made between the weights of the tumor tissues taken from the sample groups and the control groups. Further in the table, "Toxicity" is expressed by the number of mice died in the group during the 14-day period following the transplantation of the cancer cells and "Evaluation" is based on the ratios of S/C in percentages and expressed by "++" when the percentage is 0-25%, "+" when the percentage is 26-50%, and "±" when the percentage is 51-75%.

[2] = Acute toxicity, LD50 by oral administration; details: in vivo, mouse
[3] = Stability of the compound; assay type: physicochemical

SMILES | Weight of tumor tissues in the sample group (S) [1] | Evaluation [1] | effectiveness in preventing the multiplication of cancer cells [1] | Toxicity, ratio of died mice [1] | Ratio of S/C [1] | LD50 [2] | stability [3]
N#Cc1ncnc2c1cnn2-c1ccccc1 [Compound I, 1-phenyl-1H-pyrazolo[3,4-d]pyrimidine-4-carbonitrile] | 0.43 ± 0.40 g | ++ (the percentage is 0-25%) | very effective in preventing the multiplication of cancer cells | 1/5 | 9.7% | 100 mg/kg | stable
NC(=O)c1ncnc2c1cnn2-c1ccccc1 [Compound IV, 1-phenyl-1H-pyrazolo[3,4-d]pyrimidine-4-carboxamide] | 3.05 ± 1.40 g | ± (the percentage is 51-75%) | effective in preventing the multiplication of cancer cells | 0/5 | 68.7% |  | 
NC(=NO)c1ncnc2c1cnn2-c1ccccc1 [Compound VI, 1-phenyl-1H-pyrazolo[3,4-d]pyrimidine-4-carboxamidoxime] | 0.43 ± 0.15 g | + (the percentage is 26-50%) | effective in preventing the multiplication of cancer cells | 0/4 | 31.6% |  | 
O=C(O)c1ncnc2c1cnn2-c1ccccc1 [Compound X, 1-phenyl-1H-pyrazolo[3,4-d]pyrimidine-4-carboxylic acid] | 1.14 ± 0.27 g | ± (the percentage is 51-75%) | effective in preventing the multiplication of cancer cells | 0/4 | 75.0% |  | 
NC(=S)c1ncnc2c1cnn2-c1ccccc1 [Compound XI, 1-phenyl-1H-pyrazolo[3,4-d]pyrimidine-4-thiocarboxamide] | 0.63 ± 0.08 g | + (the percentage is 26-50%) | effective in preventing the multiplication of cancer cells | 0/4 | 46.3% |  | 
